Test results published in publication PMC12668289 (RSC Chemical Biology, 2025).
“And” between values parts separate entries of the source, which are not always exact repeats. Equal entries are not always repeated. Where two headings read alike, the source gives them in different places.

Columns and labels:
Fluc [1] = target: T1, Fluc (Photinus pyralis, UniProt P08659); assay: Steady-state kinetics of luciferase reactions (luminometer); assay type: biochemical; settings: for appKm: pH 8.0, 25 °C; for Substrate inhibition: concentration range tested 0-300
Protocol: (§1) 1.5 Bioluminescence characterizations
(§2) Reactions of luciferases, including Photinus pyralis luciferase (Fluc), Phrixothrix hirtus luciferase (SLR), Pyrearinus termitilluminans […]
(§3) mM D-LH 2 analogues, 3 mM ATP, 6 mM MgCl2, and 10 µM luciferase in 0.2 ml of 100 mM HEPES-NaOH pH 8.0. The bioluminescence (BL) emission characteristics were recorded using a microplate reader in a BL mode (Thermo Scientific, Varioskan, LUX multimode). […]
BL of the
(§4) The reactions were initiated by mixing 25 µl of premixed solution of luciferases/D-LH 2 analogues with 125 µl of 3 mM ATP and 6 mM MgCl2 in 100 mM HEPES-NaOH (pH 8.0). The light intensity (relative light unit, RLU) during 0-300 sec was then collected to represent the overall luciferase activity which was further used for calculating kinetic parameters from the Michaelis-Menten equation. […]

Fluc-ApCPP complex = Fluc-ApCPP complex (Photinus pyralis, UniProt P08659); assay: biochemical; assay type: binding; settings: ITC; for N site / G (free energy of binding) / H (enthalpy of binding): Fluc-ApCCP; for Kd / G (free energy of binding) / H (enthalpy of binding): 25 °C; for Kd: preformed Fluc-ApCPP complex, read-out: Dissociation constant (Kd) Fluc-ApCPP: Luciferin
Fluc [2] = target: T1, Fluc; assay: Stopped-flow luminometry, single turnover light formation and decay; assay type: biochemical
Protocol: 1.5 Bioluminescence characterizations […]
One syringe was filled with a solution of 50 µM Fluc, 3 mM ATP, and 6 mM
in both syringes were mixed by a stopped-flow device and measured the light emission at 25 °C in triplicate. […]
2.8 Investigation of bioluminescence kinetics using stopped-flow luminometry
reactions were investigated using a stopped-flow spectrophotometer (employing a light-off mode for detecting the luminescence). One

Pmluc-N230S [3] = assay: Steady-state kinetics of luciferase reactions (luminometer); assay type: biochemical, Pyrocoelia miyako; set-up: Substrate inhibition: unit not given here; settings: for appKm: pH 8.0, 25 °C; for Relative kcat: relative to 2a compound
Protocol: as §1, §2, §3
BL of the
as §4

Eluc = assay: BL emission spectra of luciferase-luciferin reactions; assay type: biochemical, Pyrearinus termitilluminans; settings: 100 mM HEPES pH 8.0, 25 °C
Protocol: as §1, §2, §3
(§5) sphere-based multichannel spectrometer with a charge-coupled device (CCD) detector. […]

SLR [4] = assay: Steady-state kinetics of luciferase reactions (luminometer); assay type: biochemical, Phrixothrix hirtus; settings: for Substrate inhibition: concentration range tested 0-300; for appKm: pH 8.0, 25 °C; for Relative kcat: relative to 2a compound
Protocol: as §1, §2, §3
BL of the
as §4

Pmluc-N230S (HepG2) = assay: Sensitivity of live reporter cell detection (LOD of cell number); assay type: cell-based, human
Pmluc-N230S [5] = assay: Bioluminescence quantum yield measurement; assay type: biochemical, Pyrocoelia miyako
Protocol: as §1, §2
(§6) mM D-LH 2 analogues, 3 mM ATP, 6 mM MgCl2, and 10 µM luciferase in 0.2 ml of 100 mM HEPES-NaOH pH 8.0. […]
(§7) A reference light source was used for calibrating a sphere spectrometer equipped with a cooled CCD detector.
(§8) The absolute responsivity of each luciferase-luciferin reaction was calculated based on a linear standardization between total photon flux measured using the sphere spectrometer equipped with a cooled CCD detector and relative count values measured by a luminometer. Total photons emitted from the bioluminescence reaction of each luciferase-luciferin pair were measured using a calibrated luminometer. A reaction containing 0.5-5 nM of each luciferin, 3 mM ATP, 3 mM MgCl2 in 100 mM Tris-HCl (total volume of 200 µl) was placed into the luminometer and background signals were recorded. The reaction was then initiated by adding 20 µl of 0.5 […]
(§9) mM purified luciferases into the reaction tube and the bioluminescence signals were monitored until it decayed to the background level.

Pmluc-N230S (HeLa) = assay: Sensitivity of live reporter cell detection (LOD of cell number); assay type: cell-based, human; settings: for Limit of detection (LOD), cells: Pmluc-N230S (HeLa); for Sensitivity higher than that of 2a: Pmluc-N230S expressing HeLa
[6] = Absorption and fluorescence spectra of luciferins; assay type: physicochemical; settings: 100 mM HEPES pH 8.0, 25 °C
Protocol: 2.6 Spectra of firefly luciferins
spectrophotometer (Agilent technologies, Cary 100 UV Vis, Cary Series UV-Vis Spectrophotometer).
were recorded by a microplate reader (Thermo Scientific, Varioskan, LUX multimode) in fluorescence mode. The reactions of D-LH 2 […]
Supplementary Table S5. […]
[e] ND denotes “not detectable”. […]

[7] = tested on: SLR-expressing HeLa cells; assay: Real-time BL monitoring of live cells
Protocol: (§10) plasmids and Lipofectamine 3000 were then combined and incubated for 30 minutes to allow formation of DNA and lipid complexes.
(§11) The DNA-lipid complexes were added directly to each well of the empty plate. 1.5 × 10⁵ cells (HepG2 and HeLa cells) were then suspended
(§12) in 150 µL of DMEM supplemented with 10% FBS were added directly into the transfection mixture in each well. The plate was gently
(§13) agitated to ensure even distribution and incubated at 37°C in a humidified 5% CO₂ incubator. The reporter cells obtained at this stage
(§14) were ready for further investigation of their bioluminescence with D-LH2 analogues.
(§15) 2c), 10% FBS and 25 mM HEPES-NaOH (pH 7.0) was added and the BL signals were monitored with F0 (no filter) and F2 (red filter, >620
(§16) nm long-pass filter) by a luminometer (ATTO, Kronos HT, WSL-1563) and while maintaining the cells with 5% CO2 at 37 °C.

Fluc [8] = target: T1, Fluc; assay: Bioluminescence quantum yield measurement; assay type: biochemical
Protocol: as §1, §2, §6, §7, §8, §9

Fluc (HeLa) = assay: Sensitivity of live reporter cell detection (LOD of cell number); assay type: cell-based, human; settings: for Limit of detection (LOD), cells: Fluc (HeLa)
[9] = target: T2, Fluc-containing HEK293T crude lysate (Photinus pyralis, UniProt P08659, K549A/L550V/N119G/N50D/S548I); assay: BL assay of crude lysate of HEK293T expressing Fluc; assay type: cell-based
T2 construct: expressed in transfected cells; host or cells: HEK293T, transient transfection with pGL4.13 [luc2/SV40]

[10] = tested on: stably Fluc-expressing HepG2 cells; assay: Real-time BL monitoring of live cells; assay type: cell-based, human; settings: Fluc HepG2, 100 µM; for Time at which the highest BL signals were achieved: monitored for 3 days
SLR [11] = assay: BL emission spectra of luciferase-luciferin reactions; assay type: biochemical, Phrixothrix hirtus; settings: 100 mM HEPES pH 8.0, 25 °C
Protocol: as §1, §2, §3, §5

[12] = tested on: Fluc-expressing HeLa cells; assay: Real-time BL monitoring of live cells; settings: 100 µM
Protocol: as §10, §11, §12, §13, §14, §15, §16

Pmluc-N230S [13] = assay: Stability of BL signals (half-time of light emission); assay type: biochemical, Pyrocoelia miyako; settings: compared to 2a
Protocol: as §1, §2
as §3, with “multimode). A digital single-lens reflex (DSLR) camera (Nikon D80, CCD sensor) with a 30-second exposure period was used to capture the BL images.” for “multimode).”

Fluc [14] = target: T1, Fluc; assay: BL emission spectra of luciferase-luciferin reactions; assay type: biochemical; settings: 100 mM HEPES pH 8.0, 25 °C
Protocol: as §1, §2, §3, §5

SLR [15] = assay: Stability of BL signals (half-time of light emission); assay type: biochemical, Phrixothrix hirtus; settings: compared to 2a
Protocol: as §1, §2
as §3, with “multimode). A digital single-lens reflex (DSLR) camera (Nikon D80, CCD sensor) with a 30-second exposure period was used to capture the BL images.” for “multimode).”

[16] = Fluc-expressing HeLa, F0 filter

Sequence of Fluc-ApCPP complex (P08659 whole entry, one chain of several): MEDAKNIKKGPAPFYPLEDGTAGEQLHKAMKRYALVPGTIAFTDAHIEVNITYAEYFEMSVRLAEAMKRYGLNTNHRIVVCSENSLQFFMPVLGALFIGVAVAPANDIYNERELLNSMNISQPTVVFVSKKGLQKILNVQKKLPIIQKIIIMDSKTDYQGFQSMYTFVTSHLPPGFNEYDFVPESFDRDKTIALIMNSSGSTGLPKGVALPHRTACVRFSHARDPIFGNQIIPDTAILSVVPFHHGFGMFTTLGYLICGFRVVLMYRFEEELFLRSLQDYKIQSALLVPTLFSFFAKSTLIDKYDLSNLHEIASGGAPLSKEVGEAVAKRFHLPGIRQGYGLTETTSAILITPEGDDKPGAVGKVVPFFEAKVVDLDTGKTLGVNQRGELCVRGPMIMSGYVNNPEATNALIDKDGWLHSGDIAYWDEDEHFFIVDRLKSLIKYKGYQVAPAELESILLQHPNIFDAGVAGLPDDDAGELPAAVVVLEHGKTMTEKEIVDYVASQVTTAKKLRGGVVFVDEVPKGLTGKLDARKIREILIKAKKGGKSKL
T1 sequence (P08659 whole entry): as the sequence (P08659 whole entry, one chain of several) above
T2 sequence (P08659 whole entry N50D/N119G/S548I/K549A/L550V): as the sequence (P08659 whole entry, one chain of several) above, with N50D, N119G, S548I, K549A, L550V counted along it

## O=C(O)[C@H]1CSC(c2nc3ccc(O)cc3s2)=N1 [Compound 2a, D-luciferin, reference compound]
Fluc [1]
  appKm: 3.3 µM
Fluc-ApCPP complex
  N site: 0.32
Fluc [2]
  Observed rate constant (kobs) Light decay Faster phase: 1.57 and 1.57 ± 0.02 s^−1
  Observed rate constant (kobs) Light decay Slower phase: 0.29 and 0.29 ± 0.00 s^−1
  Observed rate constant (kobs) Light formation: 6.64 and 6.64 ± 0.05 s^−1
Pmluc-N230S [3]; Pmluc-N230S
  appKm: 0.6 µM
Eluc
  Bioluminescence wavelength (BLλ): 537 nm
SLR [4]
  Substrate inhibition: > 4 µM
  appKm: 0.5 µM
Pmluc-N230S (HepG2); F0 (no filter)
  Limit of detection (LOD), cells: 2010 cells
Pmluc-N230S (HepG2); F2 (red filter)
  Limit of detection (LOD), cells: 1880 cells
Pmluc-N230S [5]
  Quantum yield: 0.16 and 0.160 ± 0.018
Pmluc-N230S (HeLa); F0 (no filter)
  Limit of detection (LOD), cells: 1428 cells
Pmluc-N230S (HeLa); F2 (red filter)
  Limit of detection (LOD), cells: 1185 cells
[6]
  Absorption (λmax): 327 nm
  Fluorescence (λem): 543 nm and 523–560 nm
[7]
  Time BL signals are prolonged before signal decreasing: up to 10 h
Fluc [8]
  Quantum yield: 0.44 and 0.44 ± 0.04
Fluc (HeLa); F0 (no filter)
  Limit of detection (LOD), cells: 4661 cells
Fluc (HeLa); F2 (red filter)
  Limit of detection (LOD), cells: 997 cells
[9]; HEK293T crude lysate
  Limit of detection (LOD) of expressed Fluc in crude cell lysates: 51.6 ng
[10]
  Time at which the highest BL signals were achieved: 44 h
SLR [11]
  Bioluminescence wavelength (BLλ): 625 nm

## Cc1cc2nc(C3=N[C@@H](C(=O)O)CS3)sc2cc1O [Compound 2b, 5’-methyl-D-luciferin]
Fluc [1]
  Substrate inhibition: > 10.0 µM
  appKm: 3.1 µM
Fluc-ApCPP complex
  Kd: 4 ± 0.02 µM
  N site: 0.33
  G (free energy of binding): -7.60 kcal/mol
  H (enthalpy of binding): -4.60 kcal/mol
Fluc [2]; Fluc single turnover, 25 °C
  Observed rate constant (kobs) Light decay Faster phase: 1.55 s⁻¹ and 1.55 ± 0.15 s⁻¹
  Observed rate constant (kobs) Light decay Slower phase: 0.27 s⁻¹ and 0.27 ± 0.00 s⁻¹
  Observed rate constant (kobs) Light formation: 9.63 s⁻¹ and 9.63 ± 0.04 s⁻¹
Pmluc-N230S [3]; Pmluc N230S, compared to 2a
  Relative kcat (BL intensity), fold of 2a: 5.2 fold
Pmluc-N230S [3]; Pmluc-N230S, concentration range tested 0-300
  Substrate inhibition: > 4.0
Pmluc-N230S [3]; Pmluc-N230S
  appKm: 1.8 µM
  Relative kcat: 518.5
Eluc
  Bioluminescence wavelength (BLλ): 560 nm
SLR [4]
  Substrate inhibition: > 14 µM
  appKm: 0.7 µM
  Relative kcat: 157.3
Pmluc-N230S (HepG2); F0 (no filter)
  Limit of detection (LOD), cells: 752 cells
Pmluc-N230S (HepG2); F2 (red filter)
  Limit of detection (LOD), cells: 247 cells
[12]
  Time BL signals increase or are prolonged before decreasing: up to 13 h
Pmluc-N230S [5]
  Quantum yield: 0.17 and 0.170 ± 0.034
Pmluc-N230S (HeLa); F0 (no filter)
  Limit of detection (LOD), cells: 630 cells
Pmluc-N230S (HeLa); F2 (red filter)
  Limit of detection (LOD), cells: 812 cells
Pmluc-N230S (HeLa); F0 filter
  Sensitivity higher than that of 2a: about 2.3 fold
Pmluc-N230S (HeLa); F2 filter
  Sensitivity higher than that of 2a: ~1.4 fold
Pmluc-N230S [13]
  BL half-life (t1/2) longer than that of 2a: about 1.7 fold
[6]
  Absorption (λmax): 323 nm
  Fluorescence (λem): 523 nm and 523–560 nm
[7]; SLR-expressing HeLa, 100 µM
  Time BL signals are prolonged before signal decreasing: up to 10 h
Fluc [8]
  Quantum yield: 0.52 and 0.52 ± 0.01
Fluc (HeLa); F0 (no filter)
  Limit of detection (LOD), cells: 1457 cells
Fluc (HeLa); F2 (red filter)
  Limit of detection (LOD), cells: 415 cells
[9]; HEK293T crude lysate
  Limit of detection (LOD) of expressed Fluc in crude cell lysates: 4.6 ng
[9]; HEK293T crude lysate, from LOD
  Sensitivity to detect Fluc better than natural D-LH2 (2a): about 11.2 fold
[9]; HEK293T lysate, varied substrate concentration and lysate amount
  Sensitivity greater than 2a: about 2 fold
[9]; fixed amount of HEK293T crude lysate, varied concentration
  Light intensity greater than 2a: about 2.5 fold
[10]
  Highest signal obtained at faster rate than that of 2a: 1.2 fold
  Time at which the highest BL signals were achieved: 35 h
Fluc [14]
  Bioluminescence wavelength (BLλ): 605 nm
SLR [11]
  Bioluminescence wavelength (BLλ): 626 nm
SLR [15]
  BL half-life (t1/2) longer than that of 2a: about 1.5 fold

## Cc1cc2nc(C3=N[C@@H](C(=O)O)CS3)sc2c(C)c1O [Compound 2c, 5’,7’-di-methyl-D-luciferin]
Fluc [1]
  Substrate inhibition: > 12.5 µM
  appKm: 2.5 µM
Fluc [1]; relative to 2a compound
  Relative kcat: 67.8
Fluc-ApCPP complex
  Kd: 25.3 ± 1.1 µM
  N site: 3.34
  G (free energy of binding): -6.01 kcal/mol
  H (enthalpy of binding): -4.85 kcal/mol
Fluc [2]; Fluc
  kobs of light decay (faster and slower phases) slower than those of 2a and 2b: 5–6 fold
Fluc [2]; Fluc single turnover, 25 °C
  Observed rate constant (kobs) Light decay Faster phase: 0.27 s⁻¹ and 0.27 ± 0.00 s⁻¹
  Observed rate constant (kobs) Light decay Slower phase: 0.05 s⁻¹ and 0.05 ± 0.00 s⁻¹
  Observed rate constant (kobs) Light formation: 7.28 s⁻¹ and 7.28 ± 0.02 s⁻¹
Pmluc-N230S [3]; Pmluc-N230S
  appKm: 2.6 µM
  Relative kcat: 48.1
Eluc
  Bioluminescence wavelength (BLλ): 573 nm
SLR [4]
  Substrate inhibition: > 2.1 µM
  appKm: 0.5 µM
  Relative kcat: 134.8
[12]
  Time BL signals increase or are prolonged before decreasing: up to 13 h
Pmluc-N230S [5]
  Quantum yield: 0.15 and 0.150 ± 0.014
Pmluc-N230S [13]
  BL half-life (t1/2) longer than that of 2a: ~5.6 fold
[6]
  Absorption (λmax): 334 nm
  Fluorescence (λem): 560 nm and 523–560 nm
[7]; SLR-expressing HeLa, 100 µM
  Time BL signals are prolonged before signal decreasing: up to 18 h
Fluc [8]
  Quantum yield: 0.20 and 0.200 ± 0.007
Fluc (HeLa); F2 (red filter)
  Limit of detection (LOD), cells: 350 cells
Fluc (HeLa); [16]
  Sensitivity higher than that of 2a: ~13.0 fold
  Sensitivity higher than that of 2b: about 4.1 fold
Fluc (HeLa); Fluc-expressing HeLa, F2 filter
  Sensitivity higher than that of 2a: about 2.8 fold
[10]
  Highest signal obtained at faster rate than that of 2a: 7.3 fold
  Time at which the highest BL signals were achieved: 6 h
Fluc [14]
  Bioluminescence wavelength (BLλ): 628 nm
SLR [11]
  Bioluminescence wavelength (BLλ): 634 nm
